The text below walks through data of paper PMC2692627 (Molecular microbiology, 2009).

Each structure is given as a SMILES string.

The target in series [1] is recombinant Leishmania DHCH1 (Leishmania major, UniProt Q4Q9F9). As to the kind of experiment: Inhibition of dehydrogenase. The class given is biochemical. Particulars: for Inhibition of L. major DHCH1: tested at 50 μM, data not shown.
The next series addresses Leishmania DHFR-TS (Leishmania major, UniProt P07382). In words: DHFR activity of the bifunctional L. major DHFR-TS. The class given is biochemical. Particulars: 100 μM; data not shown.
Series [2] deals with L. major FV1 promastigotes WT. In words: Promastigote growth inhibition, WT line. The class given is cell-based. Conditions: Leishmania major, read-out: EC50 growth.
For series [3], the system named is L. major FV1 promastigotes dhch1^−/pXNG4-DHCH1. In words: microbe, parasite or virus in culture. The class given is cell-based, Leishmania major. Conditions: for EC50: Leishmania major, read-out: EC50 growth; for Resistance of DHCH1 or FTL overexpressors: DHCH1 or FTL overexpressors vs WT.
For series [4], the system named is L. major FV1 promastigotes dhch1^−/pXNG4-FTL. As to the kind of experiment: Promastigote growth inhibition, dhch1−/pXNG4-FTL line. It is filed as cell-based. Conditions: Leishmania major, read-out: EC50 growth.
Series [5] deals with L. major FV1 promastigotes WT/pXNG4-DHCH1. As to the kind of experiment: Promastigote growth inhibition, WT/pXNG4-DHCH1 line. It is filed as cell-based. Particulars: Leishmania major, read-out: EC50 growth.
Series [6] relates to L. major FV1 promastigotes WT/pXNG4-FTL. As to the kind of experiment: Promastigote growth inhibition, WT/pXNG4-FTL line. The class given is cell-based. Conditions: Leishmania major, read-out: EC50 growth.
The test system of the next series is host cell (macrophages). In words: Host cell toxicity in the amastigote/macrophage test. Conditions: macrophage host cells; preliminary studies, unpublished data. It is filed as cell-based.
A further series deals with human DHFR. Conditions: read-out: Ki, human DHFR; ref Temple et al., 1982; cited from earlier work.
Another series deals with FTL. Conditions: 100 μM; ref Vickers et al., 2008; cited from earlier work.
Series [7] has as its target T1, recombinant Leishmania major DHCH1 (Leishmania major, UniProt Q4Q9F9).
T1 sequence (Q4Q9F9 1-298): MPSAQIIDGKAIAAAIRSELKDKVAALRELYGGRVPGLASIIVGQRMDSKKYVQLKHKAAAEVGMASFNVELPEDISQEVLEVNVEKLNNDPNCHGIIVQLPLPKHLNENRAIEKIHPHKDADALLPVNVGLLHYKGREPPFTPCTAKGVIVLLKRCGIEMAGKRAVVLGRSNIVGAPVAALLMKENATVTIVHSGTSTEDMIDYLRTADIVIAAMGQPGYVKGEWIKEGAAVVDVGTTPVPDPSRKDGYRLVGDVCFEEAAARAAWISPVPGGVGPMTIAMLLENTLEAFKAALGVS
As to the kind of experiment: Kinetic constants of the dehydrogenase reaction of recombinant L. major DHCH1. Particulars: limit of detection 0.3 μmol min^−1 mg^−1; also with 5 mM (K+)PO4 and 5 mM MgCl2. It is filed as biochemical.

Chain of Leishmania DHFR-TS (P07382 whole entry): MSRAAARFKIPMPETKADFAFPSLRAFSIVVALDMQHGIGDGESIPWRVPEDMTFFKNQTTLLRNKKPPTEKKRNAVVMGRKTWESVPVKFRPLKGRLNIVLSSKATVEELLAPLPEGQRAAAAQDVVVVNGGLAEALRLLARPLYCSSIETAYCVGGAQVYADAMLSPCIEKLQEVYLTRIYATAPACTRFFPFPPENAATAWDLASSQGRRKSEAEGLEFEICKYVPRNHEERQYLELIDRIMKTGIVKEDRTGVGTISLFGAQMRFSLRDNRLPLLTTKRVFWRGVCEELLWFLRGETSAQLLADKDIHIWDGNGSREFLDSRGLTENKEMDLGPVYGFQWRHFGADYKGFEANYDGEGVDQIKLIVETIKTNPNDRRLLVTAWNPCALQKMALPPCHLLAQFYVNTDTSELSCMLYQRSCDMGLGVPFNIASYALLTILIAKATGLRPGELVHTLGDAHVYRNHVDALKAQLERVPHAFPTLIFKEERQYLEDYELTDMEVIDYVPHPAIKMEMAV

As to `Nc1nc(O)c2c(n1)NC[C@@H]1CN(c3ccc(C(=O)N[C@@H](CCC(=O)O)C(=O)O)cc3)C(=O)N21` [5,10-CO-THF, (2S)-2-[[4-[(6aR)-3-amino-1,9-dioxo-5,6,6a,7-tetrahydro-4H-imidazo[3,4-f]pteridin-8-yl]benzoyl]amino]pentanedioic acid], the values for the Ki (in series [1]; at human DHFR) were 0.105 µM and greater than 100 µM, respectively. The “Inhibition of the activity of Leishmania DHFR-TS” value at Leishmania DHFR-TS is “did not inhibit”. The EC50 in [2] stood at 1.1 ± 0.04 µM; in [3], 4.5 ± 0.5 µM; in [4] it was 3.3 ± 0.3 µM; in series [5] it was 5.1 ± 0.8 µM; in [6], 3.7 ± 0.5 µM. In addition, the “Concentration above which host cell toxicity was seen” value with host cell (macrophages) is recorded as “above 10 μM”. In addition, the “Inhibition of the activity of FTL” value in the series on FTL is “did not inhibit”.
For the compound `Nc1nc(N)c(CCCc2ccccc2)c(Cc2ccccc2)n1` [Compound 70, 2,4-diamino-6-benzyl-5-(3-phenylpropyl)-pyrimidine], in series [1], the “Inhibition of L. major DHCH1” value was “not inhibited”. In addition, the EC50 in [2] amounted to 0.44 ± 0.05 µM; in series [3], 0.4 ± 0.05 µM; in series [4], 0.42 ± 0.04 µM. In addition, in series [3], the “Resistance of DHCH1 or FTL overexpressors” value is listed as “did not show resistance”.
In the same order, the values of `CN(Cc1cnc2nc(N)nc(N)c2n1)c1ccc(C(=O)N[C@@H](CCC(=O)O)C(=O)O)cc1` [Methotrexate] are “not inhibited”, 0.036 ± 0.001 µM, 0.041 ± 0.002 µM, 0.04 ± 0.002 µM and “did not show resistance”.
As to `Nc1nc(N)c2cc(Oc3ccc(Cl)c(Cl)c3)ccc2n1` [Compound 34, 2,4-diamino-6-(3,4-dichlorophenoxy)-quinazoline], in series [1], the “Inhibition of L. major DHCH1” value is listed as “not inhibited”. Moreover, the EC50 in series [2] stood at 0.68 ± 0.09 µM; in series [3] it was 0.76 ± 0.08 µM; in series [4], 0.54 ± 0.06 µM. Also, the “Resistance of DHCH1 or FTL overexpressors” value in [3] is “did not show resistance”.
Take `NC(=O)c1ccc[n+]([C@@H]2O[C@H](COP(=O)([O-])OP(=O)(O)OC[C@H]3O[C@@H](n4cnc5c(N)ncnc54)[C@H](O)[C@@H]3O)[C@@H](O)[C@H]2O)c1` [NAD^+]: the “Dehydrogenase activity with the coenzyme” value in series [7] was “no activity detected”.
As for `CC(C)c1nc2nc(N)nc(N)c2nc1C(C)C` [Compound 25, 2,4-Diamino-6,7-diisopropylpteridine], the “Inhibition of L. major DHCH1” value in series [1] was “not inhibited”.
